Experimental data reported in ChEMBL document CHEMBL3393019, “Synthesis and evaluation of NS5A inhibitors containing diverse heteroaromatic cores” (Bioorg Med Chem Lett, 2015).

How the values were obtained:
[1] = tested on: Hepatitis C virus; experiment: Antiviral activity against Hepatitis C virus genotype 1b infected in human Huh-5.2 cells assessed as decrease in HCV replicon RNA replication after 4 days by luciferase assay; assay type: functional, cell-based, Hepacivirus hominis; conditions: Huh-5-2, 96 h
[2] = tested on: Hepatitis C virus; experiment: Antiviral activity against Hepatitis C virus genotype 1a infected in W11.8 cells assessed as decrease in NS5A expression in replicon cell after 4 days by luminescence based ELISA; assay type: functional, Hepacivirus hominis; conditions: subtype 1a, W11.8, 96 h
[3] = Cytotoxicity against human Huh7ET cells by [3H]thymidine incorporation assay; assay type: cell-based, Huh-7
[4] = Oral bioavailability in rat; assay type: ADME, organism-based; conditions: in vivo
[5] = Clearance in iv dosed rat; assay type: ADME, organism-based; conditions: in vivo
[6] = Volume of distribution at steady state in iv dosed rat; assay type: ADME, organism-based; conditions: in vivo, read-out: Vdss
[7] = Half life in iv dosed rat; assay type: ADME, organism-based; conditions: in vivo
[8] = AUC (0 to 8 hrs) in po dosed rat; assay type: ADME, organism-based; design: time < 8 hr, route oral; conditions: plasma
[9] = Half life in po dosed rat; assay type: ADME, organism-based; conditions: in vivo
[10] = Cmax in po dosed rat; assay type: ADME, organism-based; design: route oral; conditions: in vivo

Compound	EC50 [1]	EC50 [2]	CC50 [3]	bioavailability [4]	clearance [5]	Vd [6]	half-life [7]	AUC(0-t) at 8 h [8]	half-life [9]	Cmax [10]
COC(=O)N[C@H](C(=O)N1C[C@@H](C)C[C@H]1c1nc2cc(-c3ccc(-c4ccc5oc([C@@H]6C[C@H](C)CN6C(=O)[C@@H](NC(=O)OC)C(C)C)nc5c4)cc3)ccc2o1)C(C)C	223 nM	> 2000 nM	7000 nM							
COC(=O)N[C@H](C(=O)N1C[C@@H](C)C[C@H]1c1nc2cc(-c3ccc(-c4ccc5oc([C@@H]6C[C@H](C)CN6C(=O)[C@@H](NC(=O)OC)C(C)C)nc5c4)cc3)ccc2[nH]1)C(C)C	0.017 nM	58 nM	> 20000 nM							
COC(=O)N[C@H](C(=O)N1C[C@@H](C)C[C@H]1c1nc2cc(-c3cc4sc(-c5ccc6oc([C@@H]7C[C@H](C)CN7C(=O)[C@@H](NC(=O)OC)C(C)C)nc6c5)cc4s3)ccc2o1)C(C)C	23 nM	> 2000 nM	> 20000 nM							
COC(=O)N[C@H](C(=O)N1C[C@@H](C)C[C@H]1c1nc2cc(-c3cc4sc(-c5ccc6oc([C@@H]7C[C@H](C)CN7C(=O)[C@@H](NC(=O)OC)C(C)C)nc6c5)cc4s3)ccc2[nH]1)C(C)C	0.003 nM	0.032 nM	> 20000 nM							
COC(=O)N[C@H](C(=O)N1C[C@@H](C)C[C@H]1c1nc(-c2ccc(-c3ccc(-c4ccc5oc([C@@H]6C[C@H](C)CN6C(=O)[C@@H](NC(=O)OC)C(C)C)nc5c4)cc3)cc2)c[nH]1)C(C)C	0.023 nM	11 nM	> 20000 nM							
COC(=O)N[C@H](C(=O)N1C[C@@H](C)C[C@H]1c1nc2ccc(-c3ccc(-c4ccc5nc([C@@H]6C[C@H](C)CN6C(=O)[C@@H](NC(=O)OC)C(C)C)oc5c4)cc3)cc2o1)C(C)C	0.006 nM	630 nM	7000 nM							
COC(=O)N[C@H](C(=O)N1C[C@@H](C)C[C@H]1c1nc2cc(-c3ccc(-c4ccc5nc([C@@H]6C[C@H](C)CN6C(=O)[C@@H](NC(=O)OC)C(C)C)oc5c4)cc3)ccc2[nH]1)C(C)C	0.008 nM	1.8 nM	> 20000 nM							
COC(=O)N[C@H](C(=O)N1C[C@@H](C)C[C@H]1c1nc2ccc(-c3cc4sc(-c5ccc6nc([C@@H]7C[C@H](C)CN7C(=O)[C@@H](NC(=O)OC)C(C)C)oc6c5)cc4s3)cc2o1)C(C)C	0.019 nM	43 nM	> 20000 nM							
COC(=O)N[C@H](C(=O)N1C[C@@H](C)C[C@H]1c1nc2cc(-c3cc4sc(-c5ccc6nc([C@@H]7C[C@H](C)CN7C(=O)[C@@H](NC(=O)OC)C(C)C)oc6c5)cc4s3)ccc2[nH]1)C(C)C	0.004 nM	0.029 nM	> 20000 nM	7.3%	6.2 mL/min/kg	2.8 L/kg	5.6 h	376 ng·h/mL	14.8 h	0.01 ng/mL
COC(=O)N[C@H](C(=O)N1C[C@@H](C)C[C@H]1c1nc(-c2ccc(-c3ccc(-c4ccc5nc([C@@H]6C[C@H](C)CN6C(=O)[C@@H](NC(=O)OC)C(C)C)oc5c4)cc3)cc2)c[nH]1)C(C)C	0.005 nM	0.164 nM	> 20000 nM							
COC(=O)N[C@H](C(=O)N1C[C@@H](C)C[C@H]1c1ncc(-c2cc3sc(-c4ccc5[nH]c([C@@H]6C[C@H](C)CN6C(=O)[C@@H](NC(=O)OC)C(C)C)nc5c4)cc3s2)[nH]1)C(C)C	0.016 nM	0.021 nM	> 20000 nM							
COC(=O)N[C@H](C(=O)N1C[C@@H](C)C[C@H]1c1ncc(-c2ccc(-c3cc4sc(-c5ccc6[nH]c([C@@H]7C[C@H](C)CN7C(=O)[C@@H](NC(=O)OC)C(C)C)nc6c5)cc4s3)cc2)[nH]1)C(C)C	0.006 nM	0.008 nM	> 20000 nM	8.4%	8.1 mL/min/kg	1.6 L/kg	3.5 h	281 ng·h/mL	17.2 h	0.01 ng/mL
COC(=O)N[C@H](C(=O)N1C[C@@H](C)C[C@H]1c1nc2cc(-c3cc4sc(-c5ccc6nc([C@@H]7C[C@H](C)CN7C(=O)[C@@H](NC(=O)OC)C(C)C)[nH]c6c5)cc4s3)ccc2[nH]1)C(C)C	0.009 nM	0.004 nM	> 20000 nM							
COC(=O)N[C@H](C(=O)N1C[C@@H](C)C[C@H]1c1nc2cc(-c3cc4sc(-c5ccc6nc([C@@H]7C[C@H](C)CN7C(=O)[C@@H](NC(=O)OC)C(C)C)n(C)c6c5)cc4s3)ccc2[nH]1)C(C)C	0.004 nM	0.024 nM	> 20000 nM							
COC(=O)N[C@H](C(=O)N1C[C@@H](C)C[C@H]1c1nc2cc(-c3cc4sc(-c5cc6nc([C@@H]7C[C@H](C)CN7C(=O)[C@@H](NC(=O)OC)C(C)C)[nH]c6s5)cc4s3)ccc2[nH]1)C(C)C	0.004 nM	0.011 nM	> 20000 nM							
COC(=O)N[C@H](C(=O)N1C[C@@H](C)C[C@H]1c1cc2cc(-c3cc4sc(-c5ccc6[nH]c([C@@H]7C[C@H](C)CN7C(=O)[C@@H](NC(=O)OC)C(C)C)nc6c5)cc4s3)ccc2[nH]1)C(C)C	0.006 nM	1.3 nM	> 20000 nM							
COC(=O)N[C@H](C(=O)N1C[C@@H](C)C[C@H]1c1cc2ccc(-c3cc4sc(-c5ccc6[nH]c([C@@H]7C[C@H](C)CN7C(=O)[C@@H](NC(=O)OC)C(C)C)nc6c5)cc4s3)cc2[nH]1)C(C)C	0.006 nM	0.02 nM	> 20000 nM	8.4%	4.7 mL/min/kg	1.6 L/kg	4.6 h	659 ng·h/mL	16.6 h	0.02 ng/mL
COC(=O)N[C@H](C(=O)N1C[C@@H](C)C[C@H]1c1nc2cc(-c3cc4sc(-c5ccc6sc([C@@H]7C[C@H](C)CN7C(=O)[C@@H](NC(=O)OC)C(C)C)nc6c5)cc4s3)ccc2[nH]1)C(C)C	0.025 nM	6.8 nM	> 20000 nM							
COC(=O)N[C@H](C(=O)N1C[C@@H](C)C[C@H]1c1cn2cc(-c3cc4sc(-c5ccc6[nH]c([C@@H]7C[C@H](C)CN7C(=O)[C@@H](NC(=O)OC)C(C)C)nc6c5)cc4s3)ccc2n1)C(C)C	0.004 nM	0.006 nM	8000 nM							
